Assay results from ChEMBL document CHEMBL1201862, “PubChem BioAssay data set” (2004).
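The compound was tested at five concentrations on cells cultured in 96-well plates, with a 48-hour exposure period. The concentration for 50% growth inhibition is given as GI50.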 Calls of active or inactive are those of the source. Rule as the data show it: active = GI50 up to about 1.1 µM and inactive = higher.

How the values were obtained:
Assay in all cases: NCI tumour cell line growth inhibition, 48 h
SK-OV-3 = system: SK-OV-3
OVCAR-4 = system: OVCAR-4
SK-MEL-2 = system: SK-MEL-2
UACC-62 = system: UACC-62
LOX IMVI = system: LOX IMVI
HT-29 = system: HT-29
OVCAR-3 = system: OVCAR-3
COLO 205 = system: COLO 205
NCI-H23 = system: NCI-H23
HOP-92 = system: HOP-92
SK-MEL-28 = system: SK-MEL-28
HL-60 = system: HL-60
HCT-15 = system: HCT-15
SW-620 = system: SW-620
NCI-H226 = system: NCI-H226
SF-268 = system: SF-268
SF-295 = system: SF-295
786-0 = system: 786-0
NCI-H522 = system: NCI-H522
HCC 2998 = system: HCC 2998

**Q.** Which results are given for Nc1ncnc2c1ncn2C1OC(CO)C(O)C1N (stereo not given)?
**A.** GI50 (SK-OV-3): > 100 µM (inactive); GI50 (OVCAR-4): > 100 µM (inactive); GI50 (SK-MEL-2): > 100 µM (inactive); GI50 (UACC-62): > 100 µM (inactive); GI50 (LOX IMVI): > 100 µM (inactive); GI50 (HT-29): > 100 µM (inactive); GI50 (OVCAR-3): > 100 µM (inactive); GI50 (COLO 205): > 100 µM (inactive); GI50 (NCI-H23): > 100 µM (inactive); GI50 (HOP-92): > 100 µM (inactive); GI50 (SK-MEL-28): > 100 µM (inactive); GI50 (HL-60): > 100 µM (inactive); GI50 (HCT-15): > 100 µM; GI50 (SW-620): > 100 µM (inactive); GI50 (NCI-H226): > 100 µM (inactive); GI50 (SF-268): > 100 µM (inactive); GI50 (SF-295): > 100 µM (inactive); GI50 (786-0): > 100 µM (inactive); GI50 (NCI-H522): > 100 µM (inactive)

**Q.** How did the GI50 (OVCAR-4) turn out when CCOC(=O)c1sc(Nc2cc(Cl)ccc2Cl)nc1C was run?
**A.** > 100 µM (inactive)

**Q.** What about the GI50 (SK-MEL-2) of the same molecule?
**A.** 95.1 µM (inactive)

**Q.** What about the GI50 (LOX IMVI) of the same molecule?
**A.** > 100 µM (inactive)

**Q.** What about the GI50 (HT-29) of the same molecule?
**A.** 50.2 µM (inactive)

**Q.** What about the GI50 (OVCAR-3) of the same molecule?
**A.** 84.1 µM (inactive)

**Q.** What about the GI50 (COLO 205) of the same molecule?
**A.** > 100 µM (inactive)

**Q.** What about the GI50 (NCI-H23) of the same molecule?
**A.** 34.4 µM (inactive)

**Q.** What about the GI50 (HOP-92) of the same molecule?
**A.** 22.6 µM (inactive)

**Q.** What about the GI50 (SK-MEL-28) of the same molecule?
**A.** > 100 µM (inactive)

**Q.** And the GI50 (HL-60)?
**A.** > 100 µM (inactive)

**Q.** What about the GI50 (HCT-15) of the same molecule?
**A.** 67.8 µM

**Q.** What about the GI50 (SW-620) of the same molecule?
**A.** > 100 µM (inactive)

**Q.** What about the GI50 (NCI-H226) of the same molecule?
**A.** 83.2 µM (inactive)

**Q.** And the GI50 (SF-268)?
**A.** > 100 µM (inactive)

**Q.** What about the GI50 (HCC 2998) of the same molecule?
**A.** > 100 µM (inactive)

**Q.** What about the GI50 (SF-295) of the same molecule?
**A.** 64 µM (inactive)

**Q.** What about the GI50 (786-0) of the same molecule?
**A.** > 100 µM (inactive)

**Q.** What about the GI50 (NCI-H522) of the same molecule?
**A.** > 100 µM (inactive)

**Q.** Which GI50 (SK-OV-3) does the source give for CC1(C)CCN2C(=O)C34CCCC3CC21S4 (stereo not given) here?
**A.** > 100 µM (inactive)

**Q.** And the GI50 (OVCAR-4)?
**A.** > 100 µM (inactive)

**Q.** What about the GI50 (SK-MEL-2) of the same molecule?
**A.** > 100 µM (inactive)

**Q.** What about the GI50 (UACC-62) of the same molecule?
**A.** > 100 µM (inactive)

**Q.** And the GI50 (LOX IMVI)?
**A.** > 100 µM (inactive)

**Q.** What about the GI50 (HT-29) of the same molecule?
**A.** > 100 µM (inactive)

**Q.** And the GI50 (OVCAR-3)?
**A.** > 100 µM (inactive)

**Q.** What about the GI50 (COLO 205) of the same molecule?
**A.** > 100 µM (inactive)

**Q.** And the GI50 (NCI-H23)?
**A.** > 100 µM (inactive)

**Q.** What about the GI50 (HOP-92) of the same molecule?
**A.** > 100 µM (inactive)

**Q.** And the GI50 (SK-MEL-28)?
**A.** > 100 µM (inactive)

**Q.** And the GI50 (HL-60)?
**A.** > 100 µM (inactive)

**Q.** What about the GI50 (HCT-15) of the same molecule?
**A.** > 100 µM

**Q.** What about the GI50 (SW-620) of the same molecule?
**A.** > 100 µM (inactive)

**Q.** What about the GI50 (NCI-H226) of the same molecule?
**A.** > 100 µM (inactive)

**Q.** What about the GI50 (SF-268) of the same molecule?
**A.** > 100 µM (inactive)

**Q.** And the GI50 (SF-295)?
**A.** > 100 µM (inactive)

**Q.** What about the GI50 (786-0) of the same molecule?
**A.** > 100 µM (inactive)

**Q.** What about the GI50 (NCI-H522) of the same molecule?
**A.** > 100 µM (inactive)

**Q.** Which results are given for O=c1ccn(Cc2ccccc2CCl)c(=O)[nH]1?
**A.** GI50 (SK-OV-3): 46.5 µM (inactive); GI50 (OVCAR-4): 69.7 µM (inactive); GI50 (SK-MEL-2): 32.7 µM (inactive); GI50 (UACC-62): 26.9 µM (inactive); GI50 (HT-29): 24.2 µM (inactive); GI50 (OVCAR-3): 22.3 µM (inactive); GI50 (COLO 205): 27.2 µM (inactive); GI50 (NCI-H23): 20.4 µM (inactive); GI50 (HOP-92): 57.9 µM (inactive); GI50 (SK-MEL-28): 33.8 µM (inactive); GI50 (HL-60): 37.2 µM (inactive); GI50 (HCT-15): 18.4 µM; GI50 (SW-620): 35.5 µM (inactive); GI50 (SF-268): 25.7 µM (inactive); GI50 (HCC 2998): 22.7 µM (inactive); GI50 (SF-295): 23.3 µM (inactive); GI50 (786-0): 20.7 µM (inactive); GI50 (NCI-H522): 20.4 µM (inactive)

**Q.** Which results are given for CC1=NN(C(=O)CC(=O)Nc2cccc(C)c2)C(=O)C1/N=N/c1ccc(C(=O)O)cc1 (stereo not given)?
**A.** GI50 (OVCAR-4): > 100 µM (inactive); GI50 (SK-MEL-2): > 100 µM (inactive); GI50 (UACC-62): > 100 µM (inactive); GI50 (LOX IMVI): > 100 µM (inactive); GI50 (HT-29): > 100 µM (inactive); GI50 (OVCAR-3): > 100 µM (inactive); GI50 (COLO 205): > 100 µM (inactive); GI50 (NCI-H23): > 100 µM (inactive); GI50 (HOP-92): 34.9 µM (inactive); GI50 (SK-MEL-28): > 100 µM (inactive); GI50 (HL-60): > 100 µM (inactive); GI50 (HCT-15): > 100 µM; GI50 (SW-620): > 100 µM (inactive); GI50 (SF-268): > 100 µM (inactive); GI50 (HCC 2998): > 100 µM (inactive); GI50 (SF-295): > 100 µM (inactive); GI50 (786-0): > 100 µM (inactive); GI50 (NCI-H522): > 100 µM (inactive)

**Q.** What does the source list for N=C(N)N/N=C/c1nc2n(c1[N+](=O)[O-])CCS2?
**A.** GI50 (SK-OV-3): 45.3 µM (inactive); GI50 (OVCAR-4): 16.2 µM (inactive); GI50 (SK-MEL-2): 17.5 µM (inactive); GI50 (UACC-62): 42.8 µM (inactive); GI50 (LOX IMVI): 15.7 µM (inactive); GI50 (HT-29): 30.2 µM (inactive); GI50 (OVCAR-3): 7.35 µM (inactive); GI50 (COLO 205): 14 µM (inactive); GI50 (NCI-H23): 14.5 µM (inactive); GI50 (HOP-92): > 100 µM (inactive); GI50 (SK-MEL-28): 43.7 µM (inactive); GI50 (HL-60): 22.5 µM (inactive); GI50 (HCT-15): 65.3 µM; GI50 (SW-620): 28.4 µM (inactive); GI50 (NCI-H226): 35.8 µM (inactive); GI50 (SF-268): 10.6 µM (inactive); GI50 (SF-295): 26.4 µM (inactive); GI50 (786-0): 38.6 µM (inactive); GI50 (NCI-H522): 12.9 µM (inactive)

**Q.** Which GI50 (SK-OV-3) does the source give for c1ccc(C(NC2CCCCC2NCCNC2CCCCC2NC(c2ccccc2)(c2ccccc2)c2ccccc2)(c2ccccc2)c2ccccc2)cc1 (stereo not given) here?
**A.** 17.8 µM (inactive)

**Q.** And the GI50 (OVCAR-4)?
**A.** 26.6 µM (inactive)

**Q.** What about the GI50 (SK-MEL-2) of the same molecule?
**A.** 26.1 µM (inactive)

**Q.** And the GI50 (UACC-62)?
**A.** 26.2 µM (inactive)

**Q.** What about the GI50 (LOX IMVI) of the same molecule?
**A.** 19 µM (inactive)

**Q.** What about the GI50 (HT-29) of the same molecule?
**A.** > 100 µM (inactive)

**Q.** What about the GI50 (OVCAR-3) of the same molecule?
**A.** 39.5 µM (inactive)

**Q.** And the GI50 (COLO 205)?
**A.** > 100 µM (inactive)

**Q.** And the GI50 (NCI-H23)?
**A.** 20.9 µM (inactive)

**Q.** What about the GI50 (HOP-92) of the same molecule?
**A.** 13.9 µM (inactive)

**Q.** And the GI50 (SK-MEL-28)?
**A.** > 100 µM (inactive)

**Q.** What about the GI50 (HCT-15) of the same molecule?
**A.** > 100 µM

**Q.** What about the GI50 (SW-620) of the same molecule?
**A.** 22.6 µM (inactive)

**Q.** What about the GI50 (SF-268) of the same molecule?
**A.** 21.3 µM (inactive)

**Q.** And the GI50 (HCC 2998)?
**A.** > 10 µM (inactive)

**Q.** And the GI50 (SF-295)?
**A.** > 100 µM (inactive)

**Q.** What about the GI50 (NCI-H522) of the same molecule?
**A.** 14.6 µM (inactive)

**Q.** Which GI50 (SK-OV-3) does the source give for O=C1/C(=C/c2ccccc2S)N=C(c2ccccc2)N1c1nc2c(Cl)cc(Cl)cc2s1 here?
**A.** 20.9 µM (inactive)

**Q.** What about the GI50 (OVCAR-4) of the same molecule?
**A.** 28.4 µM (inactive)

**Q.** And the GI50 (SK-MEL-2)?
**A.** 24 µM (inactive)

**Q.** What about the GI50 (UACC-62) of the same molecule?
**A.** 20.4 µM (inactive)

**Q.** What about the GI50 (LOX IMVI) of the same molecule?
**A.** 20.4 µM (inactive)

**Q.** What about the GI50 (HT-29) of the same molecule?
**A.** 18.4 µM (inactive)

**Q.** What about the GI50 (OVCAR-3) of the same molecule?
**A.** 17.3 µM (inactive)

**Q.** What about the GI50 (COLO 205) of the same molecule?
**A.** 21.7 µM (inactive)

**Q.** What about the GI50 (HOP-92) of the same molecule?
**A.** 19.5 µM (inactive)

**Q.** And the GI50 (SK-MEL-28)?
**A.** 35.4 µM (inactive)

**Q.** And the GI50 (HL-60)?
**A.** 16.4 µM (inactive)

**Q.** What about the GI50 (HCT-15) of the same molecule?
**A.** 31.1 µM

**Q.** What about the GI50 (SW-620) of the same molecule?
**A.** 27.7 µM (inactive)

**Q.** What about the GI50 (SF-268) of the same molecule?
**A.** 36.3 µM (inactive)

**Q.** And the GI50 (HCC 2998)?
**A.** 26.4 µM (inactive)

**Q.** And the GI50 (SF-295)?
**A.** 24.7 µM (inactive)

**Q.** What about the GI50 (786-0) of the same molecule?
**A.** 24.3 µM (inactive)
